According to US20050287192A1, “Wound bandage comprising a non-enzymatic antioxidant” (priority 2002, published 2005):
“Also recorded” adds a separate entry of the source.

Key:
Assay type in all cases: cell-based, human
leukocytes [1] = assay: stress activation of leukocytes in contact with cotton wool compresses, release of reactive oxygen by luminol-enhanced chemiluminescence; settings: cotton wool compress with physiological saline solution with glutathione, final concentration 0.05 mM, vs untreated compress; FIG. 3
Experimental: First of all leukocytes were isolated from human veinous blood and the cells were then left in contact with cotton wool compresses and stress activation of the cells was measured as the release of reactive oxygen with luminol-enhanced chemiluminiscense.
From FIG. 1 it is apparent that the leukocytes are activated on contact with cotton wool compresses.
The cellulose is then reduced again with cyanoborohydride.

leukocytes [2] = assay: ability of leukocytes to be activated by zymosan after contact with cotton wool compresses; settings: after contact with cotton wool compress with additive; FIG. 4
Experimental: The ability of the leukocytes to react against a microbial agent after contact with the cotton wool compresses was then tested by addition of zymosan, a fungal spore used to test the ability of the leukocytes to kill microbes.

leukocytes [3] = assay: lipid peroxidation of leukocyte cell membranes measured with fluorescent probe DPPP; settings: contact between leukocytes and treated cotton wool compress, DPPP fluorescence; FIG. 5
Experimental: Lipid peroxidation of cell membranes during the contact between leukocytes and cotton wool compresses was measured with a fluorescent probe, diphenyl-1-pyrenylphosphine (DPPP), which reacts with membrane peroxides and forms a fluorescent oxide, see Okimoto, Watanabe, et al., 2000 FEBS Letter, vol 474, pages 137-140.

leukocytes [4] = assay: ability of leukocytes to kill bacteria in presence of additives in solution (CFU count); settings: additive 10 mM in solution; leukocytes 1×10^5 cells/ml and Staphylococcus aureus 1×10^6 cells/ml, 37° C., two hours; FIG. 6
Experimental: The ability of leukocytes to kill bacteria in the presence of glutathione (10 mM) or N-acetylcysteine (10 mM) in solution was studied in the following manner: Leukocytes (1×10^5 cells/ml) and Staphylococcus aureus (1×10^6 cells/ml) were incubated together at 37° C. for two hours. The leukocytes were killed and the remaining bacteria were allowed to grow on a blood agar plate for 24 hours, after which the number of bacterial colonies (CFU) was calculated. Control samples without leukocytes were done in parallel with all the tests. A small number of colonies means that the leukocytes have good ability to kill bacteria.

SMILES	activation of leukocytes (release of reactive oxygen) (leukocytes [1])	ability of leukocytes to be activated by zymosan (leukocytes [2])	lipid peroxidation of the cell membrane (leukocytes [3])	ability of leukocytes to kill bacteria (number of bacterial colonies, CFU) (leukocytes [4])
N[C@@H](CCC(=O)N[C@@H](CS)C(=O)NCC(=O)O)C(=O)O [glutathione]	does not affect activation of the leukocytes; also recorded: somewhat increased quantity of reactive oxygen	retain the ability to be activated by zymosan	reduce the lipid peroxidation of the cell membrane	kill the bacteria completely
CC(=O)N[C@@H](CS)C(=O)O [N-acetylcysteine]				kill the bacteria completely
